Assay results from US20250352486A1, “NANOPARTICLES FOR USE IN THE TREATMENT OF INFECTIONS CAUSED BY BIOFILMS” (Universitat Politècnica De València, priority 2022, published 2025).

Assays:
Assay type in all cases: cell-based
[1] = system: Candida albicans biofilms; test: Eradication of mature Candida albicans biofilms (xCELLigence); settings: mature biofilms at 24 h; micafungin 1.5 μg/ml plus zymolyase 171 μg/ml, or 0.15% hydrogen peroxide
Protocol: Effect of platinum and mesoporous silica nanoparticles on the eradication of mature Candida albicans biofilms. C. albicans biofilms were cultured in the micro dilution plates of the xCELLigence system for 24 h and then treated with a combination of free micafungin together with zymolyase (an enzyme with the ability to disperse biofilm-forming cells), indicated in the legend as MZ, or with nanoparticles loaded with the antifungal micafungin and anchored with the enzyme zymolyase. […] The black curve represents the growth of the untreated biofilm and the black arrow indicates the time when the treatment was added.

[2] = system: polymicrobial oral biofilms (dental plaque); test: Effect on preformed oral biofilms derived from saliva (xCELLigence); settings: 16 μg/ml, two donors (A, B)
Protocol: FIG. 5.1. Effect of platinum and mesoporous silica nanoparticles loaded with metronidazole on preformed oral biofilms derived from saliva samples of two independent donors (A and B). The biofilms were grown in the xCELLigence system for 6 hours, and subsequently treated with metronidazole in suspension (concentration of 16 μg/ml) or with nanoparticles loaded with metronidazole (1 mg/ml of nanoparticles containing 2.25 μg metronidazole). The black arrows indicate the time when the treatment was added, whereas the black curves represent the untreated control. The biofilm comes from saliva samples and contains a complex microbial community made up of dozens of dental plaque-forming bacteria. To investigate the effect of platinum (Pt) and mesoporous silica nanoparticles on polymicrobial oral biofilms (dental plaque), biofilms derived from the saliva of two independent donors were cultured in the xCELLigence system for 6 hours, following the protocol described by Mira et al. 2019 (J Oral Microbiol). Subsequently, free metronidazole (at a concentration of 16 μg/ml), or nanoparticles with metronidazole (1 mg/ml of nanoparticles containing 2.25 μg of metronidazole) was added to evaluate the effect on said biofilms. […]

[3] = system: endodontic biofilms from root canals; test: Disruption of endodontic biofilms (xCELLigence); settings: 16 μg/ml in suspension, added after 6 h of growth
Protocol: FIG. 4.1. Disruption of endodontic biofilms using platinum and silica nanoparticles loaded with metronidazole. Endodontic biofilms were cultured in the xCELLigence system and after 6 hours of growth they were treated with 1 mg/ml of nanoparticles containing 2.25 μg of metronidazole, or with metronidazole in suspension at a concentration of 16 μg/ml, and compared to the untreated control (black curve). The black arrow indicates the time when the biofilm was treated. The biofilm comes from root canal samples extracted during a root canal and contains a complex microbial community formed by dozens of bacteria that cause this infection. Endodontic biofilms from root canals were collected with sterile files and placed in 1 ml of VMG (Ill) transport medium ([…] et al., 1993). Subsequently, the samples were transported to the laboratory where they were subjected to stirring for 3 minutes. Then, the files were extracted, the samples were centrifuged for 5 min at 10,000 rpm and the supernatant was discarded. The obtained pellet was resuspended with 1 ml of BHI (brain-heart infusion) culture medium and the samples were cultured in micro dilution plates of the xCELLigence impedance measurement system for 6 h, following the protocol described by Mira et al. 2019 (J Oral Microbiol). […]

Structure (SMILES) | effect on biofilm formation [1] | effect on salivary biofilm growth [2] | more biofilm formation compared to the untreated control [3]
OO [hydrogen peroxide] | induced the formation of biofilms | – | –
Cc1ncc([N+](=O)[O-])n1CCO [metronidazole] | – | induction of biofilm growth | up to 15%
